Laboratory results published in the NIST ThermoML archive (doi:10.1016/j.tca.2014.07.018).
Where “and” joins values, the source holds several entries; their conditions need not be identical. Equal entries are not always repeated.

Details: Crystal; for molar entropy / mass density: 101.33 kPa; for molar entropy: Small (less than 1 g) adiabatic calorimetry; for vapor or sublimation pressure: Calculated from knudsen effusion weight loss

C1C2CC3CC1CC(c1nnn[nH]1)(C2)C3 [5-(1-adamantyl)tetrazole]
Details | Normal melting temperature [°C] | molar entropy [J/K/mol] | vapor or sublimation pressure
5 K | – | 0.1627 | –
10 K | – | 1.359 | –
15 K | – | 4.002 | –
20 K | – | 7.655 | –
25 K | – | 11.89 | –
30 K | – | 16.44 | –
35 K | – | 21.13 | –
40 K | – | 25.84 | –
45 K | – | 30.53 | –
50 K | – | 35.17 | –
60 K | – | 44.22 | –
70 K | – | 52.95 | –
80 K | – | 61.41 | –
90 K | – | 69.64 | –
100 K | – | 77.69 | –
120 K | – | 93.37 | –
140 K | – | 108.7 | –
160 K | – | 123.8 | –
180 K | – | 138.9 | –
200 K | – | 154 | –
220 K | – | 169.4 | –
240 K | – | 185 | –
260 K | – | 200.8 | –
280 K | – | 216.8 | –
298.15 K | – | 231.5 | –
300 K | – | 232.9 | –
320 K | – | 249 | –
340 K | – | 265 | –
360 K | – | 281 | –
370 K | – | 289 | –
393.68 K | – | – | 5.34e-05 kPa
398.71 K | – | – | 8.43e-05 kPa and 8.47e-05 kPa
403.71 K | – | – | 0.0001344 kPa
403.72 K | – | – | 0.0001377 kPa
403.74 K | – | – | 0.0001377 kPa
408.72 K | – | – | 0.0002136 kPa and 0.0002121 kPa
408.74 K | – | – | 0.0002167 kPa
413.74 K | – | – | 0.0003204 kPa
413.75 K | – | – | 0.0003212 kPa
413.76 K | – | – | 0.0003363 kPa
418.74 K | – | – | 0.0005125 kPa
418.77 K | – | – | 0.0005047 kPa
418.8 K | – | – | 0.000516 kPa
visual observation | 251.00 | – | –

Details | mass density [kg/m3]
100 K, X-ray diffraction | 1308
292.15 K, Pycnometric method | 1470
